The values that follow come from patent publication US20100015635A1, “IMMOBILISATION OF FLUORESCENT PROTEINS” (priority 2006, published 2010).

The nature of experiment [1]: Control: emission of mixture of BSA-Atto390 and Hc-Cy5 during deoxygenation, excitation 280 nm. The settings on record: solution mixture. The text has this: To rule out that the changes in dye fluorescence might be due to a specific quenching by molecular oxygen, a mixture of Atto390 labelled bovine serum albumin (BSA) and Hc-Cy5 was deoxygenated while recording emission spectra from 300 to 750 nm upon excitation at 280 nm. The applied labels emit at different wavelengths, therefore permitting the simultaneous observation of each individual conjugate. […] With the labels exchanged, the reverse was observed. From this it can be concluded that the variations in label fluorescence correlate with the binding of O2 to the labelled hemocyanin. […] Similar observations were made for Ty.

The nature of experiment [2]: Sol-gel controls: O2 dependence of non-binding species, leaking, storage stability. Type of experiment: physicochemical. The following applies: individually encapsulated in a sol-gel matrix. The text has this: [19]. The buffer solution surrounding the quartz slides was checked for leaking of the labeled protein out of the matrix. […] As already reported, the mechanical strength of silica gels often prevents the leaking of biomolecules. 3) Tryptophan fluorescence has been used to study stability and flexibility of proteins upon entrapment.

Experiment [3] is described as follows: Switching ratio of Trp/label emission of tyrosinase (Ty) on deoxygenation, excitation 280 nm. Details: species or system Streptomyces antibioticus. The settings on record: emission of Trp or of N-terminal dye label on Ty, excitation at 280 nm. As for the experimental part: To illustrate this Example, Ty from the soil bacterium Streptomyces antibiotius was selected.
S.c. Ty contains 12 Trp residues on a total of 271 amino-acids (4.4% against ˜1% on average), which cluster around the type-3 centre. […] In an air-saturated solution (0.26 mM O2), practically all protein occurs in the oxygenated form (see FIG. 2A). Upon complete deoxygenation, the Trp fluorescence increases by a factor of 2.7 while the shape and position of the emission band remain unchanged. For the C.a. Hc samples, this factor, further referred to as the switching ratio SR (=Fred/Foxy), amounts to 2.2.
Both Hc and Ty were labelled at their N-terminus with each of the five dyes. […] The peak around […] is a second-order artefact. In a solution containing dye and protein separately (not linked) this peak (280 nm) was missing. The second order artefact is due to higher orders of light being allowed through the monochromator. The artefact can be excluded by placing a cut-off filter in the detection path that allows through light only beyond a certain wavelength (for example […]).
In all cases, an increase in label emission was observed after deoxygenating the sample (FIG. 4A). […] The Cy3 fluorescence is specific for the labelled protein, while the Trp emission derives mainly (>95%) from unlabelled Hc. […]

With “BSA-Atto390: Atto390 labelled bovine serum albumin, control”, in experiment [1], the “dependence of label emission on [O2]” value is “does not”. On to “bovine serum albumin labeled with Cy5: BSA labeled with Cy5 encapsulated in a sol-gel matrix, control”, for which, in experiment [2], the “dependence of fluorescence intensity on [O2]” value was “neither unreacted Cy5 nor bovine serum albumin labeled with Cy5, both individually encapsulated in a sol-gel matrix, depended on the [O2]”.

B1: Ty: tyrosinase from the soil bacterium Streptomyces antibiotius (protein, UniProt P07524 2-273, looked up)
Tyrosinase: TVRKNQASLTAEEKRRFVAALLELKRTGRYDAFVTTHNAFILGDTDNGERTGHRSPSFLPWHRRFLLEFERALQSVDASVALPYWDWSADRSTRSSLWAPDFLGGTGRSRDGQVMDGPFAASAGNWPINVRVDGRTFLRRALGAGVSELPTRAEVDSVLAMATYDMAPWNSGSDGFRNHLEGWRGVNLHNRVHVWVGGQMATGVSPNDPVFWLHHAYIDKLWAEWQRRHPSSPYLPGGGTPNVVDLNETMKPWNDTTPAALLDHTRHYTFDV
On to B1, for which, in experiment [3], the “SR Tyr (switching ratio Fred/Foxy)” value is reported as 2.7.
